Values after ≈ are worked out from the molar mass of the structure shown. Where two headings read alike, the source gives them in different places.
Assay: Solubility of Compound (V) in water and organic solvents
Assay type: physicochemical
Details: for solubility: read-out: Concentration in pure solvents (solubility)
Protocol: Example 1 Solubility of Compound (V) in Organic Solvents
The solubility of Compound (V) in water and in a set of organic solvents was determined.

## CCOC(=O)c1cn([C@H]2COCC[C@@H]2C#N)nc1N (racemic) [Compound (V), ethyl 3-amino-1-[(3R,4S)-4-cyanotetrahydropyran-3-yl]pyrazole-4-carboxylate and ethyl 3-amino-1-[(3S,4R)-4-cyanotetrahydropyran-3-yl]pyrazole-4-carboxylate]
acetonitrile
  Solubility in words: highly soluble
Acetonitrile (pure solvent), organic solvent or mixture
  solubility: > 200000 µg/mL
Ethanol (pure solvent), organic solvent or mixture, EtOH
  solubility: 10000 µg/mL (≈ 37.8 mM)
Isopropanol (pure solvent), organic solvent or mixture, iPrOH
  solubility: < 5000 µg/mL
Methanol (pure solvent), organic solvent or mixture, MeOH
  solubility: < 50000 µg/mL
Water (pure solvent), water
  solubility: < 5000 µg/mL
